For 52 compounds, Ki results are on record in US8765779B2, “Tricyclic derivatives and their pharmaceutical use and compositions” (Cephalon, Inc., priority 2009, dated 2014).

As usually defined, the Ki is a dissociation constant, usually derived from enzyme kinetics or from competition with a known ligand.

The assay deals with T1, human 5-HT6 receptor (Homo sapiens, UniProt P50406).
T1 construct: host or cells: CHO-K1 cells, stably transfected; membranes prepared in house
T1 sequence (P50406 whole entry): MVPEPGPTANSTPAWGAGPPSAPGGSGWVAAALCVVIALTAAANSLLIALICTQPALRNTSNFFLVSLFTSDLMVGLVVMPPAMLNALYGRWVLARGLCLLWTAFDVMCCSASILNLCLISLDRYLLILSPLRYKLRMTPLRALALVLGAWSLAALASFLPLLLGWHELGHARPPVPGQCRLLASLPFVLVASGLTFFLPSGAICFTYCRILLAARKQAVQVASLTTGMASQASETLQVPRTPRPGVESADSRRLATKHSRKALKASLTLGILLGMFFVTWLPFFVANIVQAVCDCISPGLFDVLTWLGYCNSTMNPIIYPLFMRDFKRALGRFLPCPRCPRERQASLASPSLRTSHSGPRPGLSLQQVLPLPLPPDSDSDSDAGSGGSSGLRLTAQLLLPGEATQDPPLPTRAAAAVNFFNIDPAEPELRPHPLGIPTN
Kind of assay: Human 5-HT6 Receptor Binding Assay ([3H]LSD displacement, scintillation beads). As to conditions: membranes of CHO-K1 cells with recombinant human 5-HT6, 4 nM [3H]LSD; Table 1, class symbols; read-out: h5-HT6 (Ki).
In the case of `O=S(=O)(c1ccc(Cl)c(Cl)c1)c1ccc2c3c(oc2c1)CNCC3` [Example 197, 7-[(3,4-dichlorophenyl)sulfonyl]-1,2,3,4-tetrahydro[1]benzofuro[2,3-c]pyridine], the Ki was under 500 nM.

`COc1ccc(S(=O)(=O)c2ccc3c4c(oc3c2)CNCC4)cc1` [Example 198]: the Ki is under 500 nM.

Consider `COc1cccc(S(=O)(=O)c2ccc3c4c(oc3c2)CNCC4)c1` [Example 199], for which the Ki is under 500 nM.

For the compound `O=S(=O)(c1ccc2c(c1)OCCO2)c1ccc2c3c(oc2c1)CNCC3` [Example 200], the Ki was under 500 nM.

`O=S(=O)(c1ccc(Oc2ccccc2)cc1)c1ccc2c3c(oc2c1)CNCC3` [Example 201]: the Ki is under 500 nM.

As for `O=S(=O)(c1ccc2c3c(oc2c1)CNCC3)c1cccc2ccccc12` [Example 202], the inhibition constant Ki is under 500 nM.

Turning to `O=S(=O)(c1ccc(Cl)cc1)c1ccc2c3c(oc2c1)CNCC3` [Example 203], the Ki is under 500 nM.

As to `Cc1ccc(S(=O)(=O)c2ccc3c4c(oc3c2)CNCC4)cc1` [Example 204], the Ki is under 500 nM.

As to `O=[N+]([O-])c1ccc(S(=O)(=O)c2ccc3c4c(oc3c2)CNCC4)cc1` [Example 205], the Ki was under 500 nM.

`Cc1ccc(F)cc1S(=O)(=O)c1ccc2c3c(oc2c1)CNCC3` [Example 206]: the Ki was under 500 nM.

With `O=S(=O)(c1cc(F)cc(Cl)c1)c1ccc2c3c(oc2c1)CNCC3` [Example 207], the Ki is under 500 nM.

`[O-][S+](c1ccc(Cl)c(C(F)(F)F)c1)c1ccc2c3c(oc2c1)CNCC3` (stereo not shown) [Example 209]: the Ki was under 500 nM.

Regarding `O=S(=O)(c1ccc(Cl)c(C(F)(F)F)c1)c1ccc2c3c(oc2c1)CNCC3` [Example 210], the Ki was under 500 nM.

In the case of `O=S(=O)(c1cc(Cl)cc(Cl)c1)c1ccc2c3c(oc2c1)CNCC3` [Example 211, 7-[(3,5-dichlorophenyl)sulfonyl]-1,2,3,4-tetrahydro[1]benzofuro[2,3-c]pyridine], the Ki was under 500 nM.

Take `O=S(=O)(c1cccc(Br)c1)c1ccc2c3c(oc2c1)CNCC3` [Example 212, 7-[(3-bromophenyl)sulfonyl]-1,2,3,4-tetrahydro[1]benzofuro[2,3-c]pyridine]: the inhibition constant Ki was under 500 nM.

As for `O=S(=O)(c1ccc(F)cc1)c1ccc2c3c(oc2c1)CNCC3` [Example 213], the Ki is under 500 nM.

Turning to `[O-][S+](c1ccc2c3c(oc2c1)CNCC3)c1cc(Cl)ccc1Cl` (stereo not shown) [Example 214], the Ki is under 500 nM.

As for `O=S(=O)(c1ccc2c3c(oc2c1)CNCC3)c1cc(Cl)ccc1Cl` [Example 215, 7-[(2,5-dichlorophenyl)sulfonyl]-1,2,3,4-tetrahydro[1]benzofuro[2,3-c]pyridine], the Ki is under 500 nM.

On to `CC(C)Oc1cccc([S+]([O-])c2ccc3c4c(oc3c2)CNCC4)c1` (stereo not shown) [Example 216], for which the Ki is under 500 nM.

With `CC(C)Oc1cccc(S(=O)(=O)c2ccc3c4c(oc3c2)CNCC4)c1` [Example 217], the Ki is under 500 nM.

For `Cc1cc(S(=O)(=O)c2ccc3c4c(oc3c2)CNCC4)ccc1F` [Example 218], the inhibition constant Ki is under 500 nM.

As to `COC(=O)c1cccc(S(=O)(=O)c2ccc3c4c(oc3c2)CNCC4)c1` [Example 219], the Ki is under 500 nM.

Turning to `N#Cc1ccc(S(=O)(=O)c2ccc3c4c(oc3c2)CNCC4)cc1` [Example 220], the Ki was under 500 nM.

Take `Cc1cccc(S(=O)(=O)c2ccc3c4c(oc3c2)CNCC4)c1` [Example 221]: the Ki was under 500 nM.

For `[O-][S+](c1ccc2c3c(oc2c1)CNCC3)c1cc(F)ccc1F` (stereo not shown) [Example 222], the Ki is under 500 nM.

Consider `O=S(=O)(c1ccc2c3c(oc2c1)CNCC3)c1cc(F)ccc1F` [Example 223], for which the Ki was under 500 nM.

For the compound `[O-][S+](c1ccc2c3c(oc2c1)CNCC3)c1c(F)c(F)cc(F)c1F` (stereo not shown) [Example 224], the Ki was under 500 nM.

For the compound `O=S(=O)(c1ccc2c3c(oc2c1)CNCC3)c1c(F)c(F)cc(F)c1F` [Example 225], the Ki is under 500 nM.

On to `[O-][S+](c1ccc(OC(F)(F)F)cc1)c1ccc2c3c(oc2c1)CNCC3` (stereo not shown) [Example 226, 7-{[4-(trifluoromethoxy)phenyl]sulfi-nyl}-1,2,3,4-tetrahydro[1]benzofuro[2,3-c]pyridine], for which the inhibition constant (Ki) is over 1000 nM.

Turning to `O=S(=O)(c1ccc(OC(F)(F)F)cc1)c1ccc2c3c(oc2c1)CNCC3` [Example 227, 7-{[4-(trifluoromethoxy)phenyl]sulfo-nyl}-1,2,3,4-tetrahydro[1]benzofuro[2,3-c]pyridine], the Ki is under 500 nM.

As for `O=S(=O)(c1ccc(-c2ccccc2)cc1)c1ccc2c3c(oc2c1)CNCC3` [Example 228], the inhibition constant (Ki) is 500 to 1000 nM.

For the compound `[O-][S+](c1ccc2c3c(oc2c1)CNCC3)c1ccccc1Cl` (stereo not shown) [Example 229], the Ki is under 500 nM.

`O=S(=O)(c1ccc2c3c(oc2c1)CNCC3)c1ccccc1Cl` [Example 230]: the Ki was under 500 nM.

As for `O=S(=O)(c1ccc2c3c(oc2c1)CNCC3)c1ccccc1F` [Example 231], the Ki was under 500 nM.

Consider `O=S(=O)(c1ccc2c3c(oc2c1)CNCC3)c1ccccc1-c1ccccc1` [Example 232], for which the Ki was under 500 nM.

`O=S(=O)(c1ccc2c3c(oc2c1)CNCC3)C1CCCCC1` [Example 233]: the Ki was over 1000 nM.

Consider `CC(C)S(=O)(=O)c1ccc2c3c(oc2c1)CNCC3` [Example 234], for which the Ki was over 1000 nM.

Take `CC1NCCc2c1oc1cc(S(=O)(=O)c3ccccc3)ccc21` (stereo not shown) [Example 235]: the inhibition constant Ki was under 500 nM.

In the case of `COc1ccc(S(=O)(=O)c2ccc3c4c(oc3c2)C(C)NCC4)cc1F` (stereo not shown) [Example 236], the Ki is under 500 nM.

Consider `CC1NCCc2c1oc1cc(S(=O)(=O)c3cccc(C(F)(F)F)c3)ccc21` (stereo not shown) [Example 237], for which the Ki is under 500 nM.

With `CC1NCCc2c1oc1cc(S(=O)(=O)c3ccc(F)c(F)c3)ccc21` (stereo not shown) [Example 238], the Ki was under 500 nM.

Consider `O=S(=O)(c1cccc(C(F)(F)F)c1)c1ccc2oc3c(c2c1)CCNC3` [Example 239], for which the Ki is under 500 nM.

For `O=S(=O)(c1ccc(F)c(F)c1)c1ccc2oc3c(c2c1)CCNC3` [Example 240], the Ki was under 500 nM.

With `COc1ccc(S(=O)(=O)c2ccc3oc4c(c3c2)CCNC4)cc1F` [Example 241], the Ki is under 500 nM.

Consider `COc1ccc(S(=O)(=O)c2ccc3oc4c(c3c2)CCNC4)cc1OC` [Example 242], for which the Ki is over 1000 nM.

As to `O=S(=O)(c1cccc(Cl)c1)c1ccc2oc3c(c2c1)CCNC3` [Example 243], the Ki was under 500 nM.

For the compound `O=S(=O)(c1cccc(F)c1)c1ccc2oc3c(c2c1)CCNC3` [Example 244, 6-[(3-fluorophenyl)sulfonyl]-1,2,3,4-tetrahydro[1]benzofuro[2,3-c]pyridine], the Ki is under 500 nM.

Consider `COc1ccc(S(=O)(=O)c2ccc3oc4c(c3c2)CCNC4)cc1` [Example 245], for which the Ki is under 500 nM.

As to `COc1cccc(S(=O)(=O)c2ccc3oc4c(c3c2)CCNC4)c1` [Example 246], the Ki is under 500 nM.

For the compound `O=S(=O)(c1ccc2c(c1)OCCO2)c1ccc2oc3c(c2c1)CCNC3` [Example 247], the Ki is under 500 nM.

As for `O=S(=O)(c1ccc(Oc2ccccc2)cc1)c1ccc2oc3c(c2c1)CCNC3` [Example 248], the Ki is under 500 nM.

Take `O=S(=O)(c1ccc2oc3c(c2c1)CCNC3)c1cccc2ccccc12` [Example 249]: the Ki was under 500 nM.
